Source: patent US10633407B2, “14-membered ketolides and methods of their preparation and use” (President and Fellows of Harvard College, priority 2014, dated 2020)
Values after ≈ are worked out from the molar mass of the structure shown.

Legend:
Assay in all cases: CLSI broth dilution MIC determination
Format in all cases: cell-based
[1] = system: S. aureus MP-17 ATCCBAA-977 (BAA 977 iErm); settings: Staphylococcus aureus; S. aureus MP-17, ATCCBAA-977, iErm; read-out: MIC
Excerpt: (§1) MIC data was collected for the novel macrolides that this platform has produced against over 21 unique strains of B. subtilis, E. coli, S. aureus, S. pneumoniae, and H. influenzae, including several multidrug-resistant strains, with a special focus on macrolide resistant mechanisms (vide supra). Azithromycin (Azithro) and Solithromycin (Solithro) were included as a control macrolides in many cases. CLSI standard procedures for broth dilution MIC determination were used. […] These genotypes can be constitutive or inducible.

[2] = system: E. coli MP-9 ATCC25922:tolC; settings: Escherichia coli, ATCC25922
Excerpt: as §1

[3] = system: E. coli MP-541 clinical; settings: Escherichia coli, MP541CLINICAL, read-out: MIC
Excerpt: as §1

[4] = system: S. aureus (MRSA) MP-513 ST-228 cErm (Clinical-cErm); settings: Staphylococcus aureus, read-out: MIC
Excerpt: as §1

[5] = system: E. coli MP-532 clinical-cErmB; settings: Escherichia coli
Excerpt: as §1

[6] = system: E. coli ATCC 25922; settings: Escherichia coli, ATCC25922, E. coli ATCC 25922 (MP-4); read-out: MIC
Excerpt: as §1

[7] = system: S. aureus ATCC 29213; settings: Staphylococcus aureus, ATCC29213; S. aureus ATCC 29213 (MP-12); read-out: MIC
Excerpt: as §1

[8] = system: S. aureus MRSA: USA300; settings: Staphylococcus aureus; S. aureus MRSA: USA300 (MP-549, msr(a)); read-out: MIC
Excerpt: as §1

[9] = system: A. baumannii MP-576 Clinical-MDR; settings: Acinetobacter baumannii, read-out: MIC
[10] = system: P. aeruginosa MP-7 PAO1; settings: Pseudomonas aeruginosa, read-out: MIC
[11] = system: K. pneumoniae MP-546 Clinical-MDR; settings: Klebsiella pneumoniae, read-out: MIC
[12] = system: A. baumannii MP-577 Clinical-AZT low; settings: Acinetobacter baumannii, read-out: MIC
[13] = system: P. aeruginosa MP-8 PAO1:mex (mex-oprM-deletion); settings: Pseudomonas aeruginosa, PAO1
[14] = system: P. aeruginosa ATCC 27853; settings: Pseudomonas aeruginosa, ATCC27853; P. aeruginosa ATCC 27853 (MP-3); read-out: MIC
[15] = system: K. pneumoniae MP-548 clinical; settings: Klebsiella pneumoniae, MP548CLINICAL, read-out: MIC
[16] = system: K. pneumoniae ATCC 10031; settings: Klebsiella pneumoniae, ATCC10031, K. pneumoniae ATCC 10031 (MP-14); read-out: MIC
[17] = system: A. baumannii ATCC 19606; settings: Acinetobacter baumannii, ATCC19606; A. baumannii ATCC 19606 (MP-15); read-out: MIC

SMILES: CC[C@H]1OC(=O)[C@@](C)(F)C(=O)[C@H](C)[C@@H](O[C@@H]2OC(C)CC(N(C)C)C2O)[C@](C)(OC)C[C@@H](C)C(=O)[C@H](C)[C@H]2N(CC#CCn3cc(-c4ccnc(N)n4)nn3)C(=O)O[C@]12C (stereo partly drawn) [FSM-22748]
- MIC [1]: 0.25 µg/mL (≈ 0.297 µM)
- MIC [2]: 4 µg/mL (≈ 4.75 µM)
- MIC [3]: 16 µg/mL (≈ 19 µM)
- MIC [4]: > 64 µg/mL
- MIC [5]: > 64 µg/mL
- MIC [6]: 16 µg/mL (≈ 19 µM)
- MIC [7]: 0.25 µg/mL (≈ 0.297 µM)
- MIC [8]: 0.25 µg/mL (≈ 0.297 µM)
- MIC [9]: > 64 µg/mL
- MIC [10]: 64 µg/mL (≈ 75.9 µM)
- MIC [11]: > 64 µg/mL
- MIC [12]: 32 µg/mL (≈ 38 µM)
- MIC [13]: 16 µg/mL (≈ 19 µM)
- MIC [14]: 64 µg/mL (≈ 75.9 µM)
- MIC [15]: 64 µg/mL (≈ 75.9 µM)
- MIC [16]: 8 µg/mL (≈ 9.49 µM)
- MIC [17]: 16 µg/mL (≈ 19 µM)

SMILES: CC[C@H]1OC(=O)[C@@](C)(F)C(=O)[C@H](C)[C@@H](O[C@@H]2OC(C)CC(N(C)C)C2O)[C@](C)(OC)C[C@@H](C)C(=O)[C@H](C)[C@H]2N(CC#CCn3cc(-c4cc(F)nc(F)n4)nn3)C(=O)O[C@]12C (stereo partly drawn) [FSM-22750]
- MIC [1]: 8 µg/mL (≈ 9.26 µM)
- MIC [2]: > 64 µg/mL
- MIC [3]: > 64 µg/mL
- MIC [4]: > 64 µg/mL
- MIC [5]: > 64 µg/mL
- MIC [6]: > 64 µg/mL
- MIC [7]: 4 µg/mL (≈ 4.63 µM)
- MIC [8]: 8 µg/mL (≈ 9.26 µM)
- MIC [9]: > 64 µg/mL
- MIC [10]: > 64 µg/mL
- MIC [11]: > 64 µg/mL
- MIC [12]: > 64 µg/mL
- MIC [13]: > 64 µg/mL
- MIC [14]: > 64 µg/mL
- MIC [15]: > 64 µg/mL
- MIC [16]: > 64 µg/mL
- MIC [17]: > 64 µg/mL

SMILES: CC[C@H]1OC(=O)[C@@](C)(F)C(=O)[C@H](C)[C@@H](O[C@@H]2OC(C)CC(N(C)C)C2O)[C@](C)(OC)C[C@@H](C)C(=O)[C@H](C)[C@H]2N(CC#CCn3cc(-c4cnc(N)s4)nn3)C(=O)O[C@]12C (stereo partly drawn) [FSM-100633]
- MIC [1]: 0.125 µg/mL (≈ 0.147 µM)
- MIC [2]: 1 µg/mL (≈ 1.18 µM)
- MIC [3]: 8 µg/mL (≈ 9.43 µM)
- MIC [4]: 64 µg/mL (≈ 75.5 µM)
- MIC [5]: > 64 µg/mL
- MIC [6]: 8 µg/mL (≈ 9.43 µM)
- MIC [7]: 0.125 µg/mL (≈ 0.147 µM)
- MIC [8]: 0.125 µg/mL (≈ 0.147 µM)
- MIC [9]: > 64 µg/mL
- MIC [10]: 32 µg/mL (≈ 37.7 µM)
- MIC [11]: 64 µg/mL (≈ 75.5 µM)
- MIC [12]: 16 µg/mL (≈ 18.9 µM)
- MIC [13]: 4 µg/mL (≈ 4.72 µM)
- MIC [14]: 32 µg/mL (≈ 37.7 µM)
- MIC [15]: 32 µg/mL (≈ 37.7 µM)
- MIC [16]: 2 µg/mL (≈ 2.36 µM)
- MIC [17]: 4 µg/mL (≈ 4.72 µM)
